In one experiment the test system is human DYRK1A and tau. Nature of the experiment: Inhibition of tau phosphorylation, ClariCELL Kinase Cell-Based Assay, HEK 293 cells expressing human DYRK1A and tau. The settings on record: for inhibition at 1 µM: HEK293, read-out: % inhibition at 1 uM, tau phosphorylation, compound 1 uM; for inhibition at 0.25 µM / inhibition at 0.5 µM: HEK293, tau phosphorylation; for inhibition at 0.25 µM: compound 0.25 uM; for inhibition at 0.5 µM: compound 0.5 uM. As to the method: An inhibitory effect on tau phosphorylation was determined using the ClariCELL™ Kinase Cell-Based Assay service (commercially available from CamaBio USA, Inc.). Human embryonic kidney (HEK 293) cells temporarily expressing human DYRK1A and tau were exposed to the compound, and then lysed to release cell proteins. In this case, the released tau was captured on a plate, and a degree of phosphorylation was quantified by ELISA using a tau phosphorylation-specific antibody.

A further experiment has as its target T1, human GST-DYRK1A (Homo sapiens, UniProt Q13627).
T1 construct: purified human GST-DYRK1A (full length, Thermo Scientifics) enzyme; purchased Thermo Scientifics
The experiment in a line: GST-DYRK1A enzyme inhibition, ADP-Glo kinase assay. As to conditions: ATP 10 μM, GST-DYRK1A full length, read-out: DYRK1 IC50. In kind it is biochemical. In a few lines:
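Full-length enzyme (10 ng) was incubated with 10 μM ATP and a specific substrate for 1 h at 25 °C in 40 mM Tris-HCl pH 7.4, 20 mM MgCl2, 0.5 mg/mL BSA, 50 μM DTT. Luminescence was read against a solvent control, and IC50 values were derived from 3 data sets.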

The next experiment addresses T2, human GST-CLK1 (Homo sapiens, UniProt P49759).
T2 construct: purified human GST-CLK1 (129-end, SignalChem) enzyme; purchased SignalChem
Nature of the experiment: GST-CLK1 enzyme inhibition, ADP-Glo kinase assay. In kind it is biochemical. The settings on record: ATP 10 μM, GST-CLK1 129-end. The gist of the method:
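ADP-Glo luminescence read-out, relative to untreated solvent control, gave IC50 (nM) from triplicate data sets. Reactions ran an hour at 25° C with 3 ng GST-CLK1 (residues 129-end), 10 μM ATP and specific substrate in Tris-HCl pH 7.4 buffer with MgCl2, BSA and DTT.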
(ADP-Glo first removes unused ATP, then detects ADP through luciferase.)

The target in another experiment is LRRK2 (G2019S) (Homo sapiens, UniProt Q5S007, G2019S). Nature of the experiment: LRRK2 G2019S enzyme inhibition, ADP-Glo kinase assay. The settings on record: ATP 25 μM. In kind it is biochemical. The arrangement: purchased SignalChem L10-12GG. The gist of the method:
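IC50 derived from luminescent ADP-Glo readout against untreated solvent control, twelve final compound concentrations from 50 μM downward. Reaction: recombinant human LRRK2 G2019S enzyme, 25 μM ATP, substrate, pH 7.4 Tris buffer with MgCl2/BSA/DTT, 25° C. for 2 hours.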

For a further experiment, the target named is LRRK2 (Homo sapiens, UniProt Q5S007). The experiment in a line: LRRK2 enzyme inhibition, ADP-Glo kinase assay. Format: biochemical. Also noted: purchased Invitrogen PR8604B. As to conditions: ATP 10 μM. In a few lines:
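ADP-Glo luminescent read-out of ADP formed by purified human LRRK2 enzyme (25 ng), 10 μM ATP, 0.2 μg substrate, 25° C for 2 h, Tris-HCl pH 7.4 buffer with MgCl2, BSA, DTT. Inhibition versus untreated solvent control over twelve final concentrations (50 μM downward) gives IC50.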

T2 sequence (P49759 129-484 limits assumed): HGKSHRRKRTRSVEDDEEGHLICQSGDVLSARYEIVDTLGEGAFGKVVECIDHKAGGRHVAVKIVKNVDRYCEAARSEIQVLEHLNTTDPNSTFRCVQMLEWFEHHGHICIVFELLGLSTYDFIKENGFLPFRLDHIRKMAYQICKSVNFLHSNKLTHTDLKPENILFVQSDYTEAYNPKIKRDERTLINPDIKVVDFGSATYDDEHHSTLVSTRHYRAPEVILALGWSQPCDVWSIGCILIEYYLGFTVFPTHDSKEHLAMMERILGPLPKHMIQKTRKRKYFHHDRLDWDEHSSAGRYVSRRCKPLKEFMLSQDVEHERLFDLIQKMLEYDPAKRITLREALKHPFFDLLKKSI
LRRK2 (G2019S), sequence (Q5S007 970-2527 G2019S limits assumed): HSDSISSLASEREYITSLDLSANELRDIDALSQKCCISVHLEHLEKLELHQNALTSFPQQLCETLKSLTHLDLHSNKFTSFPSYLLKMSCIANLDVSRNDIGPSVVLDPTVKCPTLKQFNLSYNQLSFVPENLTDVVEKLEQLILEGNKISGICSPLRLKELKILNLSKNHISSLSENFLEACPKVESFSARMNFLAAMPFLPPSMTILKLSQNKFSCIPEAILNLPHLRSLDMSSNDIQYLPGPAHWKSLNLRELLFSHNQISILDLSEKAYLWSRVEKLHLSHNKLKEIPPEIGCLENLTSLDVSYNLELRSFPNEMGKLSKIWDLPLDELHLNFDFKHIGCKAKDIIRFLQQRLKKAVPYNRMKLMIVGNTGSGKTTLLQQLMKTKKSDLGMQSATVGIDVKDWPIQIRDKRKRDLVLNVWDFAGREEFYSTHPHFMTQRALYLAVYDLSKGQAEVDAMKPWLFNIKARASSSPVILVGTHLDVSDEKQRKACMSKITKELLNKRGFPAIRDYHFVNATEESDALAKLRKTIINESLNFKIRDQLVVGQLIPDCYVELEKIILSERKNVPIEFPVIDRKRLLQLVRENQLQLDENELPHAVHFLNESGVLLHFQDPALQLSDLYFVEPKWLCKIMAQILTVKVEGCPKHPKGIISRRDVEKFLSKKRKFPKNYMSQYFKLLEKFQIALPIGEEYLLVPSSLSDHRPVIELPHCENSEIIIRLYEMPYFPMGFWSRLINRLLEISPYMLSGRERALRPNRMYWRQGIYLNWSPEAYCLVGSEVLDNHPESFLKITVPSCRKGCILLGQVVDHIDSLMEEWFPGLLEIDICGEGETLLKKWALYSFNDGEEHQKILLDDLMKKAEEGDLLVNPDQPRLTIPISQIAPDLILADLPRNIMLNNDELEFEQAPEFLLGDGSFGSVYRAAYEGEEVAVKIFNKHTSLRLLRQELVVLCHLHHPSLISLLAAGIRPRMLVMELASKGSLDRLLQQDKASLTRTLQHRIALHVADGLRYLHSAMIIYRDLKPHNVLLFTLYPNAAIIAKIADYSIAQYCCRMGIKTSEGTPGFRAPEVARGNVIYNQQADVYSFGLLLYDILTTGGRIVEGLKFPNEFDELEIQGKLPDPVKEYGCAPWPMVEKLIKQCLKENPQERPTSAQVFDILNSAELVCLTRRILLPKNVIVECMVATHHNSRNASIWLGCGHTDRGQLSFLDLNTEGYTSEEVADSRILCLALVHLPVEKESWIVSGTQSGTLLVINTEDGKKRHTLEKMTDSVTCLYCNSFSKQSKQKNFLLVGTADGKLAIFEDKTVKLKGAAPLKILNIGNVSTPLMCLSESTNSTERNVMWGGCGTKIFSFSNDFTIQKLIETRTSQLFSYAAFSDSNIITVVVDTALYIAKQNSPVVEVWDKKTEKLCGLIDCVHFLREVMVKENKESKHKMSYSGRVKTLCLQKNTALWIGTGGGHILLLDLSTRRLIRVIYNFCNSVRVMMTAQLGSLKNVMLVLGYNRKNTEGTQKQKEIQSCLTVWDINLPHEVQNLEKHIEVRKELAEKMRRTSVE
LRRK2, sequence (Q5S007 970-2527 limits assumed): as the sequence (Q5S007 970-2527 G2019S limits assumed) above, with S1050G counted along it

In the case of `CNc1nc(Nc2ccc(C(=O)N3CCOCC3)c3c2OCC3)nc2[nH]cc(C(F)(F)F)c12` [Example 218, (7-((4-(methylamino)-5-(trifluoromethyl)-7H-pyrrolo[2,3-d]pyrimidin-2-yl)amino)-2,3-dihydrobenzofuran-4-yl)(morpholino)methanone], in the experiment on human DYRK1A and tau, the inhibition at 1 µM was 99.4%, the inhibition at 0.25 µM is 57.7% and the inhibition at 0.5 µM is 84.3%. Further, on human GST-DYRK1A, the IC50 was less than 100 nM. In addition, at human GST-CLK1, the IC50 was less than 100 nM.

`N#Cc1c[nH]c2nc(Nc3ccc(C(=O)N4CCN(C5COC5)CC4)c4c3OCCO4)nc(N[C@H]3CCOC3)c12` [Example 315, (S)-2-((8-(4-(oxetan-3-yl)piperazine-1-carbonyl)-2,3-dihydrobenzo[b] [1,4]dioxin-5-yl)amino)-4-((tetrahydrofuran-3-yl)amino)-7H-pyrrolo[2,3-d]pyrimidine-5-carbonitrile]: in the experiment with human DYRK1A and tau, the inhibition at 1 µM came out at 16.6%, the inhibition at 0.25 µM is -1.8% and the inhibition at 0.5 µM worked out at 8.4%. Further, the IC50 on human GST-DYRK1A lay in the range of 301 to 1000 nM. On human GST-CLK1, this molecule gave an IC50 of less than 100 nM.

Consider `N#Cc1c[nH]c2nc(Nc3ccc(C(=O)N4CCN(C5COC5)CC4)c4c3OCCO4)nc(NC3CCOCC3)c12` [Example 316, 2-((8-(4-(oxetan-3-yl)piperazine-1-carbonyl)-2,3-dihydrobenzo[b] [1,4]dioxin-5-yl)amino)-4-((tetrahydro-2H-pyran-4-yl)amino)-7H-pyrrolo[2,3-d]pyrimidine-5-carbonitrile], for which, in the experiment on human DYRK1A and tau, the inhibition at 1 µM is 15.8%, the inhibition at 0.25 µM came to 2.3% and the inhibition at 0.5 µM was 8.3%. For the same molecule, the IC50 at human GST-DYRK1A lay within 301 to 1000 nM. The IC50 against human GST-CLK1 was less than 100 nM.

For the molecule `CNc1nc(Nc2ccc(C(=O)N3CC(CO)(CO)C3)c3c2OCCO3)nc2[nH]cc(C#N)c12` [Example 325, 2-((8-(3,3-bis(hydroxy-methyl)azetidine-1-carbonyl)-2,3-dihydrobenzo[b] [1,4]dioxin-5-yl)amino)-4-(methylamino)-7H-pyrrolo[2,3-d]pyrimidine-5-carbonitrile], in the experiment with human DYRK1A and tau, the inhibition at 1 µM came out at 1.9%, the inhibition at 0.25 µM is 6.3% and the inhibition at 0.5 µM stood at 13.5%. On human GST-DYRK1A, the IC50 is 101 to 300 nM. At human GST-CLK1, this molecule came in with a half-inhibitory concentration (IC50) of less than 100 nM.

In the case of `CCNc1nc(Nc2ccc(C(=O)N3CC(CO)(CO)C3)c3c2OCCO3)nc2[nH]cc(C#N)c12` [Example 326, 2-((8-(3,3-bis(hydroxy-methyl)azetidine-1-carbonyl)-2,3-dihydrobenzo[b] [1,4]dioxin-5-yl)amino)-4-(ethylamino)-7H-pyrrolo[2,3-d]pyrimidine-5-carbonitrile], in the experiment with human DYRK1A and tau, the inhibition at 1 µM is -1.8%, the inhibition at 0.25 µM is -0.6% and the inhibition at 0.5 µM came out at 13.6%. At human GST-DYRK1A, the IC50 was 101 to 300 nM. For the same molecule, on human GST-CLK1, the IC50 is less than 100 nM.

`N#Cc1c[nH]c2nc(Nc3ccc(C(=O)N4CCC(N5CCOCC5)CC4)c4c3OCC4)nc(NCC3CCCC3)c12` [Example 343, 4-((cyclo-pentylmeth-yl)amino)-2-((4-(4-morpholinopiperidine-- 1-carbonyl)-2,3-dihydro-benzofuran-7-yl)amino)-7H-pyrrolo[2,3-d]pyrimidine-5-carbonitrile]: in the experiment with human DYRK1A and tau, the inhibition at 1 µM is 52%, the inhibition at 0.25 µM was -44.3% and the inhibition at 0.5 µM came out at 16.7%. Further, the half-inhibitory concentration (IC50) at LRRK2 (G2019S) was less than 100 nM. Also, the IC50 at human GST-DYRK1A was 301 to 1000 nM. For the same molecule, the concentration for half-maximal inhibition (IC50) against human GST-CLK1 lay in the range of 301 to 1000 nM.

For the molecule `CC[C@H](C)Nc1nc(Nc2ccc(C(=O)N3CCC(N4CCOCC4)CC3)c3c2OCC3)nc2[nH]cc(C#N)c12` [Example 357, (S)-4-(sec-butylamino)-2-((4-(4-morpholino-piperidine-1-carbonyl)-2,3-dihydro-benzofuran-7-yl)amino)-7H-pyrrolo[2,3-d]pyrimidine-5-carbonitrile], in the experiment with human DYRK1A and tau, the inhibition at 1 µM was 35.4%, the inhibition at 0.25 µM is 19.7% and the inhibition at 0.5 µM worked out at 33.1%. The molecule also had an IC50 at LRRK2 (G2019S) of less than 100 nM. The IC50 on human GST-DYRK1A is 301 to 1000 nM. The molecule further showed an IC50 at human GST-CLK1 of less than 100 nM.

For `O=C(c1ccc(Nc2nc(NC3CCC3)c3c(C(F)(F)F)c[nH]c3n2)c2c1OCCO2)N1CCC(N2CCOCC2)CC1` [Example 378, (8-((4-(cyclobutyl-amino)-5-(trifluoromethyl)-7H-pyrrolo[2,3-d]pyrimidin-2-yl)amino)-2,3-dihydrobenzo[b] [1,4]dioxin-5-yl) (4-morpholino-piperidin-1-yl)methanone], the half-maximal inhibitory concentration (IC50) at LRRK2 (G2019S) was less than 100 nM; at human GST-DYRK1A, 101 to 300 nM; against human GST-CLK1, less than 100 nM; on LRRK2, less than 100 nM.

`O=C(c1ccc(Nc2nc(NCC3CC3)c3c(C(F)(F)F)c[nH]c3n2)c2c1OCCO2)N1CCN(C2COC2)CC1` [Example 422, (8-((4-((cyclo-propylmeth-yl)amino)-5-(trifluoromethyl)-7H-pyrrolo[2,3-d]pyrimidin-2-yl)amino)-2,3-dihydrobenzo[b] [1,4]dioxin-5-yl) (4-(oxetan-3-yl)piperazin-1-yl)methanone]: in the experiment on human DYRK1A and tau, the inhibition at 1 µM came to 33.2%, the inhibition at 0.25 µM came to 7.4% and the inhibition at 0.5 µM is 19.6%. For the same molecule, at LRRK2 (G2019S), the IC50 is less than 100 nM. Besides, the IC50 on human GST-DYRK1A fell in the range of 301 to 1000 nM. Moreover, the IC50 at human GST-CLK1 is less than 100 nM.

In the case of `CCNc1nc(Nc2ccc(P3(=O)CCN(C4CCOCC4)CC3)cc2OC)nc2[nH]cc(C(F)(F)F)c12` [Example 439, 4-(4-((4-(ethylamino)-5-(trifluoromethyl)-7H-pyrrolo[2,3-d]pyrimidin-2-yl)amino)-3-methoxyphenyl)-1-(tetrahydro-2H-pyran-4-yl)-1,4-azaphosphinane 4-oxide], in the experiment with human DYRK1A and tau, the inhibition at 1 µM was found to be 55.7%, the inhibition at 0.25 µM is 18.8% and the inhibition at 0.5 µM came out at 43.6%. For the same molecule, the IC50 at human GST-DYRK1A was less than 100 nM. The molecule further registered an IC50 at human GST-CLK1 of less than 100 nM. In addition, on LRRK2, the IC50 was less than 100 nM.

With `COc1cc(P2(=O)CCN(C3CC3)CC2)ccc1Nc1nc(NC(C)C)c2c(C(F)(F)F)c[nH]c2n1` [Example 440, 1-cyclopropyl-4-(4-((4-(isopropylamino)-5-(trifluoromethyl)-7H-pyrrolo[2,3-d]pyrimidin-2-yl)amino)-3-methoxyphenyl)-1,4-azaphosphinane 4-oxide], in the experiment on human DYRK1A and tau, the inhibition at 1 µM was determined as 36.3%, the inhibition at 0.25 µM stood at 9.6% and the inhibition at 0.5 µM amounted to 27.8%. The molecule also had an IC50 at LRRK2 (G2019S) of less than 100 nM. In addition, the IC50 on human GST-DYRK1A is 301 to 1000 nM. The molecule further returned an IC50 against human GST-CLK1 of 301 to 1000 nM.

Take `CC(C)Nc1nc(Nc2ccc(C(=O)N3CCN(C4COC4)CC3)c3c2OCCO3)nc2[nH]cc(C(F)(F)F)c12` [Example 441, (8-((4-(isopropylamino)-5-(trifluoromethyl)-7H-pyrrolo[2,3-d]pyrimidin-2-yl)amino)-2,3-dihydrobenzo[b] [1,4]dioxin-5-yl) (4-(oxetan-3-yl)piperazin-1-yl)methanone]: in the experiment on human DYRK1A and tau, the inhibition at 1 µM stood at 75.5%, the inhibition at 0.25 µM was 19.6% and the inhibition at 0.5 µM turned out to be 57.4%. The half-inhibitory concentration (IC50) on human GST-DYRK1A is 101 to 300 nM. For the same molecule, the IC50 against human GST-CLK1 was less than 100 nM.

In the case of `O=C(c1ccc(Nc2nc(NCC3CCCC3)c3c(C(F)(F)F)c[nH]c3n2)c2c1CCO2)N1CCC(N2CCOCC2)CC1` [Example 464, (7-((4-((cyclo-pentylmeth-yl)amino)-5-(trifluoromethyl)-7H-pyrrolo[2,3-d]pyrimidin-2-yl)amino)-2,3-dihydrobenzo-furan-4-yl)(4-morpholino-piperidin-1-yl)methanone], in the experiment on human DYRK1A and tau, the inhibition at 1 µM was determined as 44.2%. Also, the inhibition at 0.25 µM with human DYRK1A and tau turned out to be 11.5%. In addition, the inhibition at 0.5 µM in the experiment with human DYRK1A and tau is 12.4%. The half-maximal inhibitory concentration (IC50) on LRRK2 (G2019S) is less than 100 nM; at human GST-DYRK1A, 301 to 1000 nM; on human GST-CLK1, 301 to 1000 nM.

As for `CCCCNc1nc(Nc2ccc(C(=O)N3CCC(N4CCOCC4)CC3)c3c2OCC3)nc2[nH]cc(C(F)(F)F)c12` [Example 466, (7-((4-(butylamino)-5-(trifluoromethyl)-7H-pyrrolo[2,3-d]pyrimidin-2-yl)amino)-2,3-dihydrobenzo-furan-4-yl)(4-morpholino-piperidin-1-yl)methanone], the inhibition at 1 µM with human DYRK1A and tau is 71.3%. In addition, in the experiment with human DYRK1A and tau, the inhibition at 0.25 µM amounted to 9.5%. Further, the inhibition at 0.5 µM with human DYRK1A and tau amounted to 39.2%. Further, the figures for the IC50 on LRRK2 (G2019S), at human GST-DYRK1A and against human GST-CLK1 were less than 100 nM, 301 to 1000 nM and 301 to 1000 nM, respectively.

One may read the inhibition as the change of the read-out against control, counted positive when it falls. One may read the IC50 as the point on the concentration scale where inhibition reaches its midpoint.

These data come from US20230066011A1, “PYRROLOPYRIMIDINE DERIVATIVE, AND PHARMACEUTICAL COMPOSITION FOR PREVENTING OR TREATING PROTEIN KINASE-RELATED DISEASE COMPRISING SAME AS ACTIVE INGREDIENT” (VORONOI CO., LTD., priority 2019, published 2023).
